Measured values taken from US20220213144A1, “HALOGENATED ANTIMICROBIAL PEPTOIDS” (priority 2019, published 2022).
Converted amounts (≈) assume the structure as drawn. Like-named read-outs stand apart in the source and are kept apart here. Square brackets hold non-standard residues; d marks the D form. Peptide text beside a SMILES is read from it. N(4-Br-benzyl)Gly = O=C(O)CNCc1ccc(Br)cc1; NBzl(4-I)Gly = O=C(O)CNCc1ccc(I)cc1; Nspe = C[C@H](NCC(=O)O)c1ccccc1; Nphe = O=C(O)CNCc1ccccc1; Nlys = NCCCCNCC(=O)O

Legend:
[1] = system: methicillin-restant S. epidermidis ET-024; format: cell-based, Staphylococcus epidermidis; conditions: for increase in activity against MRSE: 8-mer and 10-mer, compared to unsubstituted controls 10 and 19; for MIC against MRSE: strain not named; for MIC MRSE^c: S. epidermidis ET-024
Procedure: (§1) Bacterial growth inhibition was determined by using broth microdilution according to the Clinical Laboratory Standards Institute. The antibacterial activity of peptoids was tested against S. aureus ATCC 25923, ATCC29213, and methicillin resistant S. aureus USA 300, methicillin resistant S. epidermidis ATCC 51625, a biofilm producing methicillin resistant S. epidermidis […], P. aeruginosa Pa01 (H103), and E. coli ATCC 25922. Bacteria, grown on agar plates for 18 hours at 37° C., were diluted to ˜1×10^8 CFU/mL in Mueller-Hinton Broth II (MHB II). Twofold serial dilutions of peptoids in MHB II were inoculated with the bacteria to achieve a final concentration of 5×10^5 CFU/mL in polypropylene 96 U-well microtiter plates (Corning™ 3897; ThermoFisher Scientific, Roskilde), followed by incubation at 37° C. in ambient air for 18 hours. The MIC values were determined as the lowest concentration showing no visible bacterial growth. Experiments were performed twice (in technical triplicates) on different days.

[2] = Small angle X-ray scattering, critical aggregation concentration from fit; format: physicochemical; conditions: for critical aggregation concentration (CAC): SAXS fit analysis, bundle model
Procedure: SAXS experiments of the 10-mer peptoids were performed on the automated BM29 bioSAXS beamline at the European Synchrotron Radiation Facility (ESRF) in Grenoble, France. The data was obtained using an energy of 12.5 keV and a detector distance of 2.87 m, covering a q range (q=4π sin(θ/2)/λ), where θ is the scattering angle and λ is the X-ray wavelength) of about 0.0047 Å-1 to 0.5 Å-1. The data set was calibrated to an absolute intensity scale using water as a primary standard. Samples (40 μL) were run through a capillary using the flow mode of the automated sample changer. SAXS data was collected in ten successive frames of 0.5 s each to monitor radiation damage, and the data reduction was done using the standard tool at BM29.
The SAXS experiments on the fully iodinated 6-, 8-, and 12-mers to determine the CAC of the compounds were performed using a Bruker NANOSTAR equipped with a microfocus X-ray source (IμS Cu, Incoatec, Germany) and a VANTEC-2000 detector. Raw scattering data was calibrated to absolute intensity scale using water as a primary standard and radially averaged in order to obtain the 1D scattered intensity profile as a function of the scattering vector, with a wavelength of 1.54 Å.
where fagg is the fraction of peptoid chains aggregated in bundles, allowing for calculation of a CAC from ϕCAC=ϕ−(fagg*ϕ).

[3] = system: S. aureus ATCC 25923; format: cell-based, Staphylococcus aureus; conditions: for increase in activity against S. aureus: compared to the unsubstituted control peptoid of same length; for MIC against S. aureus: strain not named; for MIC SA^a: S. aureus ATCC 25923
Procedure: as §1

[4] = system: methicillin-restant S. epidermidis ATCC 51625; format: cell-based, Staphylococcus epidermidis; conditions: for MIC against MRSE: text b77, 6-mers, strain not named, values fit ATCC 51625; for MIC MRSE^d: S. epidermidis ATCC 51625
Procedure: as §1

[5] = system: seven bacterial strains; experiment: MIC by broth microdilution, whole panel of bacterial strains; format: cell-based; conditions: in words
Procedure: All 36 peptoids were tested against seven bacterial strains. These included five Gram-positive strains (Staphylococcus aureus ATCC 25923 and ATCC 29213, methicillin-resistant Staphylococcus aureus USA 300, methicillin-restant Staphylococcus epidermidis ET-024 and ATCC 51625) and two Gram-negative strains (Escherichia coli ATCC 25922 and Pseudomonas aeruginosa PA01) (see TABLE 1).
as §1

[6] = system: methicillin-resistant S. aureus USA 300; format: cell-based, Staphylococcus aureus
Procedure: as §1

[7] = system: E. coli ATCC 25922; format: cell-based, Escherichia coli
Procedure: as §1

[8] = system: P. aeruginosa PA01; format: cell-based, Pseudomonas aeruginosa; conditions: P. aeruginosa PA01 H103
Procedure: as §1

[9] = Cell viability assay (MTS/PMS), HaCaT cell line; format: cell-based; conditions: human, text b151, read-out: IC50 (cytotoxicity, HaCaT)
Procedure: An immortalized human keratinocytes (HaCaT) cell line (Gift from David Gram Naym at Bispebjerg Hospital) was cultured to ˜90% confluence after 21-25 h of growth under standard conditions (5% CO2/95% 02 at 37° C.). Cells were cultured in Dulbecco's Modified Eagle's Medium supplemented with 10% (v/v) fetal bovine serum (FBS). All culture media were supplemented with penicillin (100 IU/mL) and streptomycin (100 μg/mL). All cell media and supplements were obtained from Sigma-Aldrich (St. Louis, Mo., United States). The 96-well plates were obtained from Corning Costar (Sigma-Aldrich, Brondby, Denmark).
Cell viability assessment was performed on cell monolayers grown to ˜90% confluence in 96-well plates using the MTS/PMS assay as previously described. Briefly, the adhered cells were washed with 37° C. PBS solution (ThermoFisher Scientific, Roskilde) and exposed for 1 h at 37° C. to 100 μL of peptoid dissolved in the medium also used for culturing of the cell line (at concentrations in the range 0-1000 μg/mL). The cells were then washed twice with 37° C. PBS. […] A plate reader (SpectraMax i3X; Molecular devices, San Jose, Calif.) was used to measure the absorbance at 492 nm. The relative viability was calculated by using 0.2% (w/v) sodium dodecyl sulfate (SDS) as the positive control, while cells exposed to medium without test compound were used as the negative control. […]

[10] = intraperitoneal; Czyzewski et al. 2016; cited from earlier work
[11] = in words; cited from earlier work
[12] = system: S. aureus and S. epidermidis; format: cell-based, Staphylococcus aureus, Staphylococcus epidermidis; conditions: span over the Gram-positive strains
Procedure: as §1

[13] = Table 3, fully iodinated peptoids, bundle model fit
[14] = 8-mers and 10-mers, values fit ET-024
[15] = Table 2, 10-mers, SAXS at ESRF, model fit

Q: For `NCCCCNCC(=O)N(CC(=O)N(CCCCN)CC(=O)N(CC(=O)N(CCCCN)CC(=O)N(CC(=O)N(CCCCN)CC(=O)N(CC(N)=O)Cc1ccc(I)cc1)Cc1ccc(I)cc1)Cc1ccc(I)cc1)Cc1ccc(I)cc1` [Compound 14] (H-[Nlys][NBzl(4-I)Gly][Nlys][NBzl(4-I)Gly][Nlys][NBzl(4-I)Gly][Nlys][NBzl(4-I)Gly]-NH2; N-terminus assumed), which “increase in activity against MRSE” value [1] is on record?
A: 128 fold

Q: What about the MIC against MRSE [1] of the same compound?
A: 2 µg/mL (≈ 1.23 µM)

Q: And the “critical aggregation concentration (CAC)” value [2]?
A: 1.4 mg/mL

Q: What about the CAC [2, 13] of the same compound?
A: 1.4 mg/mL

Q: With `NCCCCNCC(=O)N(CC(=O)N(CCCCN)CC(=O)N(CC(=O)N(CCCCN)CC(=O)N(CC(N)=O)Cc1ccc(I)cc1)Cc1ccc(I)cc1)Cc1ccc(I)cc1` [Compound 5] (H-[Nlys][NBzl(4-I)Gly][Nlys][NBzl(4-I)Gly][Nlys][NBzl(4-I)Gly]-NH2; N-terminus assumed) as the compound, how does the “increase in activity against S. aureus” value [3] read?
A: more than 64 fold

Q: And the MIC against S. aureus [3]?
A: 8 µg/mL (≈ 6.55 µM)

Q: What about the “increase in activity against MRSE” value ([4]; 6-mer, compared to unsubstituted control 1) of the same compound?
A: 256 fold

Q: And the “MIC against MRSE” value [4]?
A: 2 µg/mL (≈ 1.64 µM)

Q: What about the “critical aggregation concentration (CAC)” value [2] of the same compound?
A: 2.8 mg/mL

Q: What about the CAC [2, 13] of the same compound?
A: 2.8 mg/mL

Q: Which “potency against the selected bacterial strains” value [5] does the source give for `NCCCCNCC(=O)N(CC(=O)N(CCCCN)CC(=O)N(CC(=O)N(CCCCN)CC(=O)N(CC(=O)N(CCCCN)CC(=O)N(CC(=O)N(CCCCN)CC(=O)N(CC(=O)N(CCCCN)CC(=O)N(CC(N)=O)Cc1ccccc1)Cc1ccccc1)Cc1ccccc1)Cc1ccccc1)Cc1ccccc1)Cc1ccccc1` [Compound 28] (H-[Nlys][Nphe][Nlys][Nphe][Nlys][Nphe][Nlys][Nphe][Nlys][Nphe][Nlys][Nphe]-NH2; N-terminus assumed) here?
A: inactive

Q: With `NCCCCNCC(=O)N(CC(=O)N(CCCCN)CC(=O)N(CC(=O)N(CCCCN)CC(=O)N(CC(=O)N(CCCCN)CC(=O)N(CC(N)=O)Cc1ccccc1)Cc1ccccc1)Cc1ccccc1)Cc1ccccc1` [Compound 10] (H-[Nlys][Nphe][Nlys][Nphe][Nlys][Nphe][Nlys][Nphe]-NH2; N-terminus assumed) as the compound, how does the “MIC against MRSE” value [1, 14] read?
A: 256 µg/mL (≈ 229 µM)

Q: What about the “potency against the selected bacterial strains” value [5] of the same compound?
A: inactive

Q: Which “MIC SA^a” value ([3]; Table 4) does the source give for `C[C@@H](c1ccccc1)N(CC(N)=O)C(=O)CN(C(=O)CN(CCCCN)C(=O)CN(C(=O)CN(C(=O)CN(CCCCN)C(=O)CN(C(=O)CN(C(=O)CN(CCCCN)C(=O)CN(C(=O)CN(C(=O)CNCCCCN)[C@@H](C)c1ccccc1)[C@@H](C)c1ccccc1)[C@@H](C)c1ccccc1)[C@@H](C)c1ccccc1)[C@@H](C)c1ccccc1)[C@@H](C)c1ccccc1)[C@@H](C)c1ccccc1` [Peptoid 1, H-(NLys-Nspe-Nspe)4-NH2] (H-[Nlys][Nspe][Nspe][Nlys][Nspe][Nspe][Nlys][Nspe][Nspe][Nlys][Nspe][Nspe]-NH2) here?
A: 8 µg/mL (≈ 4.4 µM)

Q: And the “MIC SA^a” value ([3]; Table 5)?
A: 8 µg/mL (≈ 4.4 µM)

Q: And the “MIC MRSA^b” value ([6]; Table 4)?
A: 8 µg/mL (≈ 4.4 µM)

Q: And the “MIC MRSA^b” value ([6]; Table 5)?
A: 8 µg/mL (≈ 4.4 µM)

Q: And the “MIC MRSE^d” value ([4]; Table 4)?
A: 8 µg/mL (≈ 4.4 µM)

Q: And the “MIC MRSE^d” value ([4]; Table 5)?
A: 8 µg/mL (≈ 4.4 µM)

Q: And the “MIC MRSE^c” value ([1]; Table 4)?
A: 4 µg/mL (≈ 2.2 µM)

Q: What about the “MIC MRSE^c” value ([1]; Table 5) of the same compound?
A: 4 µg/mL (≈ 2.2 µM)

Q: And the “MIC EC^e” value ([7]; Table 4)?
A: 8 µg/mL (≈ 4.4 µM)

Q: And the “MIC EC^e” value ([7]; Table 5)?
A: 8 µg/mL (≈ 4.4 µM)

Q: And the “MIC PA^f” value ([8]; Table 4)?
A: 16 µg/mL (≈ 8.79 µM)

Q: And the “MIC PA^f” value ([8]; Table 5)?
A: 16 µg/mL (≈ 8.79 µM)

Q: And the IC50 at 1 h [9]?
A: 35 µg/mL (≈ 19.2 µM)

Q: What about the “tolerability intraperitoneally in vivo” value [10] of the same compound?
A: reasonably well tolerated

Q: What about the cytotoxicity in vitro [11] of the same compound?
A: relatively high cytotoxicity

Q: What does the source list for `NCCCCNCC(=O)N(CC(=O)N(CCCCN)CC(=O)N(CC(=O)N(CCCCN)CC(=O)N(CC(N)=O)Cc1ccccc1)Cc1ccccc1)Cc1ccccc1` [Compound 1] (H-[Nlys][Nphe][Nlys][Nphe][Nlys][Nphe]-NH2; N-terminus assumed)?
A: MIC against MRSE [4]: 512 µg/mL (≈ 607 µM); potency against the selected bacterial strains [5]: inactive

Q: With `NCCCCNCC(=O)N(CC(=O)N(CCCCN)CC(=O)N(CC(=O)N(CCCCN)CC(=O)N(CC(=O)N(CCCCN)CC(=O)N(CC(=O)N(CCCCN)CC(=O)N(CC(N)=O)Cc1ccc(Br)cc1)Cc1ccccc1)Cc1ccc(Br)cc1)Cc1ccccc1)Cc1ccc(Br)cc1` [Compound 26] (H-[Nlys][N(4-Br-benzyl)Gly][Nlys][Nphe][Nlys][N(4-Br-benzyl)Gly][Nlys][Nphe][Nlys][N(4-Br-benzyl)Gly]-NH2) as the compound, how does the CAC [2, 15] read?
A: >5 mg/mL

Q: And the MICs [12]?
A: 1 to 8 µg/mL

Q: For `NCCCCNCC(=O)N(CC(=O)N(CCCCN)CC(=O)N(CC(=O)N(CCCCN)CC(=O)N(CC(=O)N(CCCCN)CC(=O)N(CC(=O)N(CCCCN)CC(=O)N(CC(N)=O)Cc1ccc(Br)cc1)Cc1ccc(Br)cc1)Cc1ccc(Br)cc1)Cc1ccc(Br)cc1)Cc1ccc(Br)cc1` [Compound 22] (H-[Nlys][N(4-Br-benzyl)Gly][Nlys][N(4-Br-benzyl)Gly][Nlys][N(4-Br-benzyl)Gly][Nlys][N(4-Br-benzyl)Gly][Nlys][N(4-Br-benzyl)Gly]-NH2; N-terminus assumed), which “increase in activity against S. aureus” value [3] is on record?
A: > 256 fold

Q: What about the “MIC against S. aureus” value [3] of the same compound?
A: 2 µg/mL (≈ 1.12 µM)

Q: And the “increase in activity against MRSE” value [1]?
A: 128 fold

Q: And the “MIC against MRSE” value [1, 14]?
A: 1 µg/mL (≈ 0.559 µM)

Q: And the “critical aggregation concentration (CAC)” value [2]?
A: 2.3 mg/mL

Q: What about the CAC [2, 15] of the same compound?
A: 2.3 mg/mL

Q: With `NCCCCNCC(=O)N(CC(=O)N(CCCCN)CC(=O)N(CC(=O)N(CCCCN)CC(=O)N(CC(=O)N(CCCCN)CC(=O)N(CC(=O)N(CCCCN)CC(=O)N(CC(N)=O)Cc1ccccc1)Cc1ccccc1)Cc1ccccc1)Cc1ccccc1)Cc1ccccc1` [Compound 19] (H-[Nlys][Nphe][Nlys][Nphe][Nlys][Nphe][Nlys][Nphe][Nlys][Nphe]-NH2; N-terminus assumed) as the compound, how does the “MIC against MRSE” value [1, 14] read?
A: 128 µg/mL (≈ 91.8 µM)

Q: And the CAC [2, 15]?
A: >5 mg/mL

Q: What about the “potency against the selected bacterial strains” value [5] of the same compound?
A: inactive
